Data reported in US11814376B2, “Hepatitis b core protein modulators” (Assembly Biosciences, Inc., priority 2015, dated 2023).
Where two headings read alike, the source gives them in different places.

Legend:
AD38 cells = test: Viability of AD38 cells (Promega CellTiter-Glo); type: cell-based; conditions: 10 μM compound, 6 days, CellTiter-Glo luminescence normalized to DMSO control (100%)
Procedure: (§1) Example 2: Assay Measuring Activity of Compounds on Viral Production in and on Viability of AD38 Cells
(§2) AD38 cells were then re-suspended with 10 mL of Treatment Medium and counted. Wells of a collagen coated 96-well NUNC microtiter plate were seeded at 50,000/well in 180 μL of Treatment Medium, and 20 μL of in treatment media with either 10% DMSO (Control) or a 10× solution of compound in 10% DMSO was added. Plates were incubated for 6 days at 37° C.
At the end of compound treatment period cell viability was assessed using a Promega CellTiter-Glo protocol. All supernatant was removed the previously treated 96-well microtiter plate, and 50 μL Tetracycline-free treatment medium (DMEM/F12 (1:1), 1× Pen/step (cat #: 30-002-CL, Mediatech, Inc), with 2% FBS, Tet-system approved (cat #: 631106, Clontech), and 1% DMSO was added back to each well. Another 50 μL of CellTiter-Glo reagent solution (Promega, G7573) was then added at room temperature and the contents mixed for 2 minutes on an orbital shaker to induce cell lysis. This was followed by incubation at room temperature for 10 minutes to stabilize the luminescent signal. The luminescence was recorded for 0.2 seconds per well on a Tecan multimode plate reader (Infinite M1000 pro). The luminescent signal from each well was normalized against that of untreated (DMSO) control wells. All results were reported percent viability (with controls being 100%).

[1] = tested on: HBV viral load in AD38 cells; test: Viral load production in AD38 cells, quantitative PCR of the core sequence in supernatant; type: cell-based; conditions: for activity at 10 µM: Hepatitis B virus, 144 h, read-out: AD38 Viral Load (%) (VL with cmpd/VL in DMSO control) at 10 μM
Procedure: as §1, §2
Viral load production was assayed by quantitative PCR of the core sequence. […] The PCR mixture was incubated at 45° C. for 5 minutes, then 95° C. for 10 min, followed by 40 cycles of 10 seconds at 95° C. and 20 seconds at 60° C. Viral load was quantitated against known standards by using ViiA™ 7 Software. Viral load in the supernatant from wells with treated cells were compared against viral load in supernatant from DMSO control wells (>3 per plate).

[2] = 10 μM compound, 6 days at 37° C., supernatant qPCR, relative to DMSO control

Compound | AD38 Viability Normalized Result (cmpd/DMSO %) at 10 μM (AD38 cells) | activity at 10 µM [1, 2] | AD38 Viral Load (%) (VL with cmpd/VL in DMSO control) at 10 μM [1, 2] | activity at 10 µM [1]
CN(CCCCc1ccc(-c2ncc(CNC(=O)c3ccc4c(c3)NC(=O)c3ccccc3S4(=O)=O)s2)cc1)C1CC1 [compound 11094] | 94% | 0.6% |  | 
O=C(NCc1cnc(C(F)(F)F)s1)c1ccc2c(c1)NC(=O)c1ccccc1O2 [compound 1629] | 107% | 3.2% |  | 
CC(C)(C)OC(=O)NCCCS(=O)(=O)c1ccc(-c2ncc(CNC(=O)c3ccc4c(c3)NC(=O)c3ccccc3S4(=O)=O)s2)cc1 [11032-A, tert-butyl (3-((4-(5-((5,5-dioxido-11-oxo-10, 11-dihydrodibenzo [b, f] [1, 4]thiazepine-8-carboxamido)methyl)thiazol-2-yl)phenyl)sulfonyl)propyl) carbamate] | 110% |  | 12.9% | 
O=C(O)CSc1ncc(CNC(=O)c2ccc3c(c2)NC(=O)c2ccccc2S3)s1 [compound 1603, 2-((5-((11-oxo-10, 11-dihydrodibenzo [b, f] [1, 4]thiazepine-8-carboxamido)methyl)thiazol-2-yl)thio) acetic acid] | 108% | 32.8% |  | 
CCN(CC)CCCSc1ccc(-c2ncc(CNC(=O)c3ccc4c(c3)NC(=O)c3ccccc3S4(=O)=O)s2)cc1 [compound 11063, N-((2-(4-((3-(diethylamino)propyl)thio)phenyl)thiazol-5-yl)methyl)-11-oxo-10, 11-dihydrodibenzo [b, f] [1, 4] thiazepine-8-carboxamide 5,5-dioxide] | 102% | 1.2% |  | 
O=C(O)CSc1ncc(CNC(=O)c2ccc3c(c2)NC(=O)c2ccccc2O3)s1 [compound 1616, 2-((5-((11-oxo-10, 11-dihydrodibenzo [b, f] [1, 4]oxazepine-8-carboxamido)methyl)thiazol-2-yl)thio) acetic acid] | 103% | 105% |  | 
O=C(NCc1cnc(-c2ccc3cnccc3c2)s1)c1ccc2c(c1)NC(=O)c1ccccc1O2 [compound 1832] | 98% | 14.1% |  | 
O=C(NCc1cnc(-c2ccc(O)cc2)s1)c1cc2c(cc1F)Sc1ccccc1C(=O)N2 [compound 1749] | 109% | 54.3% |  | 
COc1ccnc(-c2ncc(CNC(=O)c3ccc4c(c3)NC(=O)c3ccccc3S4(=O)=O)s2)c1 [1880-A, N-((2-(4-methoxypyridin-2-yl)thiazol-5-yl)methyl)-11-oxo-10, 11-dihydrodibenzo [b, f] [1, 4] thiazepine-8-carboxamide 5,5-dioxide] | 124% | 0.7% |  | 
CN(C)CCOc1ncc(CNC(=O)c2ccc3c(c2)NC(=O)c2ccccc2S3(=O)=O)s1 [compound 1586, N-((2-(2-(dimethylamino)ethoxy)thiazol-5-yl)methyl)-11-oxo-10, 11-dihydrodibenzo [b, f] [1, 4] thiazepine-8-carboxamide 5,5-dioxide] | 83% | 27.9% |  | 
CN(Cc1cnc(-c2ccc(O)cc2)s1)C(=O)c1ccc2c(c1)NC(=O)c1ccccc1S2(=O)=O [compound 1661] | 90% | 45.2% |  | 
N#Cc1ccc(-c2ncc(CNC(=O)c3ccc4c(c3Cl)NC(=O)c3ccccc3S4(=O)=O)s2)c(F)c1 [compound 11083] | 62% | 0.8% |  | 
CN(C)CCOc1ncc(CN(C)C(=O)c2ccc3c(c2)NC(=O)c2ccccc2O3)s1 [compound 1686, N-((2-(2-(dimethylamino)ethoxy)thiazol-5-yl)methyl)-N-methyl-11-oxo-10, 11-dihydrodibenzo [b, f] [1, 4] oxazepine-8-carboxamide] | 102% | 58.4% |  | 
CN(C)CCCOc1ccc(-c2ncc(CNC(=O)c3ccc4c(c3Cl)NC(=O)c3ccccc3S4(=O)=O)s2)cc1 [C51-01] | 99% | 0.4% |  | 
N#Cc1cccc(-c2ncc(CNC(=O)c3ccc4c(c3)NC(=O)c3ccccc3S4(=O)=O)s2)c1 [1677-A, N-((2-(3-cyanophenyl)thiazol-5-yl)methyl)-11-oxo-10, 11-dihydrodibenzo [b, f] [1, 4] thiazepine-8-carboxamide 5,5-dioxide] | 103% | 2.3% |  | 
CC(C)(C)OC(=O)NCCNC(=O)c1ccc(-c2ncc(CNC(=O)c3ccc4c(c3)NC(=O)c3ccccc3S4(=O)=O)s2)cc1 [11017-A, tert-butyl (2-(4-(5-((5,5-dioxido-11-oxo-10, 11-dihydrodibenzo [b, f] [1, 4]thiazepine-8-carboxamido)methyl)thiazol-2-yl)benzamido)ethyl)carbamate] | 102% | 8.8% |  | 
CN(C)CC1(COc2ccc(-c3ncc(CNC(=O)c4ccc5c(c4)NC(=O)c4ccccc4S5(=O)=O)s3)cc2)CCC1 [compound 11113] | 92% | 4.9% |  | 
CN(C)CCOc1ncc(CNC(=O)c2ccc3c(c2)NC(=O)c2ccccc2O3)s1 [compound 1614, N-((2-(2-(dimethylamino)ethoxy)thiazol-5-yl)methyl)-11-oxo-10, 11-dihydrodibenzo [b, f] [1, 4] oxazepine-8-carboxamide] | 98% | 8.5% |  | 
Cc1c(C(=O)NCc2cnc(C(F)(F)F)s2)ccc2c1NC(=O)c1ccccc1S2(=O)=O [compound 1767] | 94% | 0.5% |  | 
O=C(NCc1cnc(-c2ccc3ncccc3c2)s1)c1ccc2c(c1)NC(=O)c1ccccc1S2(=O)=O [compound 1819] | 118% | 0.5% |  | 
O=C(NCc1cnc(-c2ccccc2)s1)c1ccc2c(c1)NC(=O)c1ccccc1O2 [compound 1562] | 97% | 0.9% |  | 
CCc1cc2c(cc1C(=O)NCc1cnc(C(F)(F)F)s1)NC(=O)c1ccccc1S2(=O)=O [compound 11041] | 94% | 47.4% |  | 
CC(C)(C)OC(=O)N1CCC[C@@H]1COc1ccc(-c2ncc(CNC(=O)c3ccc4c(c3)NC(=O)c3ccccc3S4(=O)=O)s2)cc1 [11104-A, tert-butyl (R)-2-((4-(5-((5,5-dioxido-11-oxo-10, 11-dihydrodibenzo [b, f] [1, 4]thiazepine-8-carboxamido)methyl)thiazol-2-yl)phenoxy)methyl) pyrrolidine-1-carboxylate] | 74% | 0.9% |  | 
O=C(NCc1cnc(-c2ccc(OCCC[N+]34CCC(CC3)CC4)cc2)s1)c1ccc2c(c1)NC(=O)c1ccccc1S2(=O)=O.[Br-] [compound 11108, 1-(3-(4-(5-((5,5-dioxido-11-oxo-10, 11-dihydrodibenzo [b, f] [1, 4]thiazepine-8-carboxamido)methyl)thiazol-2-yl)phenoxy)propyl) quinuclidin-1-ium bromide] | 95% |  |  | 11.2%
